ChEMBL document CHEMBL5032490, “Neuroactive Type-A γ-Aminobutyric Acid Receptor Allosteric Modulator Steroids from the Hypobranchial Gland of Marine Mollusk, Conus geographus” (J Med Chem, 2021)
Calls of active or inactive are those of the source.

Experiments:
Neuron [1] = test: Effect on mouse GABA receptor expressed in mouse DRG neurons at 10 uM using cold thermosensors; type: tissue-based
Neuron [2] = test: Effect on mouse GABA receptor expressed in mouse C-low-threshold mechanoreceptors DRG neurons at 10 uM; type: tissue-based
Neuron [3] = test: Effect on mouse GABA receptor expressed in mouse non-peptidergic nociceptive DRG neurons at 10 uM; type: tissue-based
Neuron [4] = test: Effect on mouse GABA receptor expressed in mouse peptidergic nociceptive DRG neurons at 10 uM; type: tissue-based
[5] = Induction of cytosolic calcium ion concentration in mouse non-peptidergic nociceptive DRG neuron at 10 uM measured after 1 hr by Fura2AM dye based fluorescence microscopic analysis; type: functional
[6] = Induction of cytosolic calcium ion concentration in mouse DRG neurons at 10 microg/ml measured after 1 hr by Fura2AM dye based fluorescence microscopic analysis; type: functional, Neuron; conditions: dose 10 µg/ml
[7] = Induction of ATP-induced cytosolic calcium ion concentration in mouse DRG neurons assessed as neuron population at 10 microg/ml measured after 1 hr by Fura2AM dye based fluorescence microscopic; type: functional; conditions: dose 10 µg/ml
[8] = Induction of ATP and Kcl-induced increase in cytosolic Ca2+ ion concentration mouse non-peptidergic nociceptive DRG neuron assessed as neuron population at 10 uM measured after 1 hr by Fura2AM dye based fluorescence microscopic analysis; type: functional
[9] = Induction of cytosolic calcium ion concentration in mouse microglia cells at 10 uM measured after 1 hr by Fura2AM dye based fluorescence microscopic analysis; type: functional
[10] = Reduction of ATP and Kcl-induced increase in cytosolic Ca2+ ion concentration mouse […] assessed as neuron population at 10 uM measured after 1 hr by Fura2AM dye based fluorescence microscopic analysis; type: functional; design: scale not given: the % may be the effect or the level left
[11] = Induction of cytosolic calcium ion concentration in mouse peptidergic nociceptive DRG neuron at 10 uM measured after 1 hr by Fura2AM dye based fluorescence microscopic analysis; type: functional
[12] = Induction of cytosolic calcium ion concentration in mouse DRG other neuron subtype at 10 uM measured after 1 hr by Fura2AM dye based fluorescence microscopic analysis; type: functional
[13] = Reduction of ATP and Kcl-induced increase in cytosolic Ca2+ ion concentration mouse peptidergic nociceptive DRG neuron assessed as neuron population at 10 uM measured after 1 hr by Fura2AM dye based fluorescence microscopic analysis; type: functional; design: scale not given: the % may be the effect or the level left
[14] = Induction of ATP and Kcl-induced increase in cytosolic Ca2+ ion concentration mouse DRG other neuron subtype assessed as neuron population at 10 uM measured after 1 hr by Fura2AM dye based fluorescence microscopic analysis; type: functional
[15] = Reduction in ATP-induced cytosolic calcium ion concentration in mouse DRG neurons at 10 microg/ml measured after 1 hr by Fura2AM dye based fluorescence microscopic analysis in response to ATP; type: functional, Neuron; design: scale not given: the % may be the effect or the level left; conditions: dose 10 µg/ml
[16] = Reduction of ATP and Kcl-induced increase in cytosolic Ca2+ ion concentration mouse DRG other neuron subtype assessed as neuron population at 10 uM measured after 1 hr by Fura2AM dye based fluorescence microscopic analysis; type: functional; design: scale not given: the % may be the effect or the level left
[17] = Reduction of ATP and Kcl-induced increase in cytosolic Ca2+ ion concentration mouse non-peptidergic nociceptive DRG neuron assessed as neuron population at 10 uM measured after 1 hr by Fura2AM dye based fluorescence microscopic analysis; type: functional; design: scale not given: the % may be the effect or the level left
[18] = (§1) Reduction in Kcl-induced cytosolic calcium ion concentration in mouse DRG neurons at 10 microg/ml measured after 1 hr by Fura2AM dye based fluorescence microscopic analysis in response to Kcl; type: functional, Neuron; design: scale not given: the % may be the effect or the level left; conditions: dose 10 µg/ml
[19] = Induction of ATP and Kcl-induced increase in cytosolic Ca2+ ion concentration mouse peptidergic nociceptive DRG neuron assessed as neuron population at 10 uM measured after 1 hr by Fura2AM dye based fluorescence microscopic analysis; type: functional
[20] = Induction of ATP and Kcl-induced increase in cytosolic Ca2+ ion concentration mouse […] assessed as neuron population at 10 uM measured after 1 hr by Fura2AM dye based fluorescence microscopic analysis; type: functional
[21] = Induction of Kcl-induced cytosolic calcium ion concentration in mouse DRG neurons in response to Kcl at 10 microg/ml measured after 1 hr by Fura2AM dye based fluorescence microscopic analysis; type: functional, Neuron; conditions: dose 10 µg/ml
Neuron [22] = test: as §1; type: functional; conditions: dose 10.0 µg/ml

| SMILES | Activity (Neuron [1]) | Activity (Neuron [2]) | Activity (Neuron [3]) | Activity (Neuron [4]) | Activity [6] [%] | Activity [7] [%] | Activity [15] [%] | Activity [18] [%] | Activity [21] [%] | other results |
| --- | --- | --- | --- | --- | --- | --- | --- | --- | --- | --- |
| CC(C)CCC[C@@H](C)[C@H]1CC[C@H]2[C@@H]3CC=C4C[C@@H](O)CC[C@]4(C)[C@H]3CC[C@]12C | inactive | inactive | inactive | inactive | – | – | – | – | – | – |
| C[C@H](CC[C@H](O)C(C)(C)O)[C@H]1CC[C@H]2[C@@H]3C(=O)C=C4C[C@@H](O)CC[C@]4(C)[C@H]3CC[C@]12C | – | – | – | – | 58 | 21 | 15 | 49 | 6 | Activity [5]: 15%; Activity [8]: 26%; Activity [9]: 4%; Activity [10]: 24%; Activity [11]: 37%; Activity [12]: 2%; Activity [13]: 4%; Activity [14]: 5%; Activity [16]: 3%; Activity [17]: 7%; Activity [19]: 45%; Activity [20]: 3% |
| CC(C)C(=O)CC[C@@H](C)[C@H]1CC[C@H]2[C@@H]3C(=O)C=C4C=CCC[C@]4(C)[C@H]3CC[C@]12C | – | – | – | – | 6 | 11 | 13 | 1 | 19 | – |
| C[C@H](CC[C@@H](O)C(C)(C)O)[C@H]1CC[C@H]2[C@@H]3C(=O)C=C4C[C@H](O)CC[C@]4(C)[C@H]3CC[C@]12C | – | – | – | – | 19 | 33 | 3 | – | 54 | Activity (Neuron [22]): inactive |
| C[C@H](CCC(=O)C(C)(C)O)[C@H]1CC[C@H]2[C@@H]3C(=O)C=C4C=CCC[C@]4(C)[C@H]3CC[C@]12C | – | – | – | – | 35 | 9 | 17 | 2 | 22 | – |
| C[C@H](CCC(=O)O)[C@H]1CC[C@H]2[C@@H]3[C@H](O)C[C@@H]4C[C@H](O)CC[C@]4(C)[C@H]3C[C@H](O)[C@]12C | inactive | inactive | inactive | inactive | – | – | – | – | – | – |
| CC(C)[C@@H](C)/C=C/[C@@H](C)[C@H]1CC[C@H]2C3=CC=C4C[C@@H](O)CC[C@]4(C)[C@H]3CC[C@]12C | inactive | inactive | inactive | inactive | – | – | – | – | – | – |
| C[C@H](CC[C@@H](O)C(C)(C)O)[C@H]1CC[C@H]2[C@@H]3C(=O)C=C4C=CCC[C@]4(C)[C@H]3CC[C@]12C | – | – | – | – | 3 | 36 | 3 | 4 | 38 | – |
